Measurements from ChEMBL document CHEMBL1201862, “PubChem BioAssay data set” (2004).
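All cell lines were grown in 96-well plates and treated with compound for 48 hours. GI50 marks 50% less growth.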 Calls of active or inactive are those of the source. No stated cut-off is given here; in the data, active = GI50 up to about 1.1 µM and inactive = higher.

Legend:
Test in all cases: DTP human tumour cell line panel, 48 h
[1] = test system: 786-0
[2] = test system: A498
[3] = test system: A549
[4] = test system: BT-549
[5] = test system: CCRF-CEM
[6] = test system: HOP-92
[7] = test system: IGROV-1
[8] = test system: MDA-MB-231
[9] = test system: MDA-N
[10] = test system: NCI-H522
[11] = test system: NCI/ADR-RES
[12] = test system: RXF 393
[13] = test system: SF-268
[14] = test system: SF-295
[15] = test system: SK-MEL-2
[16] = test system: SR
[17] = test system: T47D
[18] = test system: UACC-257
[19] = test system: M19-MEL
[20] = test system: DMS-114

Compound	GI50 [1]	GI50 [2]	GI50 [3]	GI50 [4]	GI50 [5]	GI50 [6]	GI50 [7]	GI50 [8]	GI50 [9]	GI50 [10]	GI50 [11]	GI50 [12]	GI50 [13]	GI50 [14]	GI50 [15]	GI50 [16]	GI50 [17]	GI50 [18]	GI50 [19]	GI50 [20]
O=c1c2cccnc2[nH]c2ccc3cn[nH]c3c12	> 10 µM (inactive)	> 10 µM (inactive)	> 10 µM (inactive)	> 10 µM (inactive)	6.15 µM (inactive)	> 10 µM (inactive)	3.33 µM (inactive)	8.53 µM (inactive)	> 10 µM (inactive)	> 10 µM (inactive)	> 10 µM (inactive)	2.15 µM (inactive)	> 10 µM (inactive)	> 10 µM (inactive)	> 10 µM (inactive)	3.29 µM (inactive)	> 10 µM (inactive)	> 10 µM (inactive)		
NC(CO)C(=O)NCC(=O)O (centres undefined)	> 100 µM (inactive)	> 100 µM (inactive)	> 100 µM (inactive)	> 100 µM (inactive)	> 100 µM (inactive)	> 100 µM (inactive)	> 100 µM (inactive)	> 100 µM (inactive)	> 100 µM (inactive)	> 100 µM (inactive)	> 100 µM (inactive)	> 100 µM (inactive)	> 100 µM (inactive)	> 100 µM (inactive)	> 100 µM (inactive)	> 100 µM (inactive)	> 100 µM (inactive)	> 100 µM (inactive)		
CCc1nc(N)c2nc(-c3ccc(C#N)cc3)oc2n1	> 100 µM (inactive)	> 100 µM (inactive)	> 100 µM (inactive)	> 100 µM (inactive)	> 100 µM (inactive)	> 100 µM (inactive)	> 100 µM (inactive)	> 100 µM (inactive)	> 100 µM (inactive)	> 100 µM (inactive)	> 100 µM (inactive)	> 100 µM (inactive)	> 100 µM (inactive)	> 100 µM (inactive)	> 100 µM (inactive)	> 100 µM (inactive)	> 100 µM (inactive)	> 100 µM (inactive)		
O=C(Nc1ccccc1)N1CC(CN2CCN(c3ccccc3)CC2)OC1=O (centres undefined)	> 100 µM (inactive)	> 100 µM (inactive)	> 100 µM (inactive)	> 100 µM (inactive)	> 100 µM (inactive)	> 100 µM (inactive)	46.3 µM (inactive)	> 100 µM (inactive)	> 100 µM (inactive)	80.9 µM (inactive)	> 100 µM (inactive)	> 100 µM (inactive)	> 100 µM (inactive)	> 100 µM (inactive)	> 100 µM (inactive)	> 100 µM (inactive)	> 100 µM (inactive)	> 100 µM (inactive)		
CCCCCCCCC/C=C1\CC(CO)(COC(=O)c2ccccc2)OC1=O (centres undefined)	17.8 µM (inactive)	26 µM (inactive)	20 µM (inactive)	21.8 µM (inactive)	16.9 µM (inactive)	9.82 µM (inactive)	32.1 µM (inactive)	19.3 µM (inactive)	16.6 µM (inactive)	17.9 µM (inactive)	22.6 µM (inactive)	21.1 µM (inactive)	22.7 µM (inactive)	21.2 µM (inactive)	43.5 µM (inactive)	42.4 µM (inactive)	29.1 µM (inactive)	26.5 µM (inactive)		
COc1cc(C2C(Cl)C(=O)N2NC(=O)c2ccc(NC(C)=O)cc2)cc(Br)c1O (centres undefined)			> 100 µM (inactive)		> 100 µM (inactive)	> 100 µM (inactive)	> 100 µM (inactive)			> 100 µM (inactive)			> 100 µM (inactive)	> 100 µM (inactive)	> 100 µM (inactive)	> 100 µM (inactive)		> 100 µM (inactive)	> 100 µM (inactive)	
CC(=O)c1ccc(OCC(O)CO)cc1 (centres undefined)	25.6 µM (inactive)	> 100 µM (inactive)	94.2 µM (inactive)		> 100 µM (inactive)	> 100 µM (inactive)	> 100 µM (inactive)			> 100 µM (inactive)			> 100 µM (inactive)	> 100 µM (inactive)				> 100 µM (inactive)	> 100 µM (inactive)	47 µM (inactive)
Cc1nc2cc(/N=N/c3c(C)noc3C)ccc2[nH]1	28.1 µM (inactive)	11.1 µM (inactive)	19.1 µM (inactive)	22.2 µM (inactive)	25.2 µM (inactive)	14.9 µM (inactive)	12.6 µM (inactive)	28.2 µM (inactive)	16.8 µM (inactive)	23.3 µM (inactive)	28.1 µM (inactive)	16.3 µM (inactive)	26.6 µM (inactive)	23.4 µM (inactive)	34.8 µM (inactive)	16.9 µM (inactive)	1.67 µM (inactive)	44.1 µM (inactive)		
O=[N+]([O-])C(=C/c1cccc2ccccc12)/C(=C\c1cccc2ccccc12)[N+](=O)[O-]	1.77 µM (inactive)	19.3 µM (inactive)	15.3 µM (inactive)	2.05 µM (inactive)	0.528 µM (active)	1.92 µM (inactive)	1.79 µM (inactive)	2.1 µM (inactive)	2.62 µM (inactive)	1.37 µM (inactive)	2.51 µM (inactive)	1.99 µM (inactive)	2.32 µM (inactive)	2.58 µM (inactive)	9.73 µM (inactive)	0.955 µM (active)	3.07 µM (inactive)	2.32 µM (inactive)		
COC(=O)CC(=O)OSc1ccccc1		17.3 µM (inactive)	12.5 µM (inactive)		3.76 µM (inactive)	17.7 µM (inactive)	7.71 µM (inactive)			1.61 µM (inactive)		10.4 µM (inactive)		27.5 µM (inactive)	34.6 µM (inactive)	6.03 µM (inactive)		25.4 µM (inactive)		11.6 µM (inactive)
CCCCCC(/C=C/[C@@H]1CC(=O)C[C@H]1O[Si](C)(C)C(C)(C)C)OCOCCOC (some centres undefined)	3.74 µM (inactive)	11.9 µM (inactive)	9.55 µM (inactive)	3.26 µM (inactive)	> 100 µM (inactive)	1.97 µM (inactive)	3.24 µM (inactive)	4.48 µM (inactive)	3.41 µM (inactive)	1.93 µM (inactive)	2.94 µM (inactive)	2.24 µM (inactive)	2.98 µM (inactive)	11 µM (inactive)	4.22 µM (inactive)	1.5 µM (inactive)	11.1 µM (inactive)	3.68 µM (inactive)		
NCc1ccccc1C1CSCSC1			> 100 µM (inactive)		> 100 µM (inactive)					> 100 µM (inactive)		39.8 µM (inactive)	> 100 µM (inactive)	> 100 µM (inactive)	> 100 µM (inactive)			> 100 µM (inactive)	> 100 µM (inactive)	> 100 µM (inactive)
COc1ccc(C(=O)N=C2N(c3ccccc3)C(=N/c3ccccc3)/C(=N\c3ccccc3)N2c2ccccc2)cc1	17.9 µM (inactive)	19.2 µM (inactive)	30.3 µM (inactive)	13.2 µM (inactive)	> 100 µM (inactive)	2.9 µM (inactive)	54 µM (inactive)	> 62.8 µM (inactive)	19.2 µM (inactive)	30.7 µM (inactive)	> 100 µM (inactive)	2.26 µM (inactive)	65.8 µM (inactive)	33.3 µM (inactive)	21.3 µM (inactive)	> 100 µM (inactive)	> 58.6 µM (inactive)	48.2 µM (inactive)		
O=C(CC1(O)C(=O)Nc2ccccc21)c1ccc2ccccc2c1 (centres undefined)	> 100 µM (inactive)	> 100 µM (inactive)	> 100 µM (inactive)			> 100 µM (inactive)	> 100 µM (inactive)			99.5 µM (inactive)		> 100 µM (inactive)	> 100 µM (inactive)	> 100 µM (inactive)	> 100 µM (inactive)			> 100 µM (inactive)	> 100 µM (inactive)	> 100 µM (inactive)
O=C(O)CCS/C(=C\C(SCCC(=O)O)c1ccc(Cl)cc1)c1ccc(Cl)cc1 (centres undefined)	78.9 µM (inactive)	19.7 µM (inactive)	57.1 µM (inactive)	30.5 µM (inactive)	30.1 µM (inactive)	25.8 µM (inactive)	38.8 µM (inactive)	71.4 µM (inactive)	36.6 µM (inactive)	33.5 µM (inactive)	> 100 µM (inactive)	39.7 µM (inactive)	50 µM (inactive)	33.4 µM (inactive)	26.5 µM (inactive)	29.4 µM (inactive)	41.9 µM (inactive)	> 100 µM (inactive)		
CC(=O)Nc1ccc(/C=C(\NC(=O)c2ccccc2)C(=O)NNS(=O)(=O)c2ccc(C)cc2)cc1	> 10 µM (inactive)		> 100 µM (inactive)		> 100 µM (inactive)	> 100 µM (inactive)	> 100 µM (inactive)			> 100 µM (inactive)		> 100 µM (inactive)	78.9 µM (inactive)	> 100 µM (inactive)	> 100 µM (inactive)	20.1 µM (inactive)		> 100 µM (inactive)	> 100 µM (inactive)	
CN1CCCOC(c2ccc([N+](=O)[O-])cc2)O1 (centres undefined)	> 100 µM (inactive)	> 100 µM (inactive)	> 100 µM (inactive)	> 100 µM (inactive)	> 100 µM (inactive)	> 100 µM (inactive)	> 100 µM (inactive)	> 100 µM (inactive)	> 100 µM (inactive)	> 100 µM (inactive)	> 100 µM (inactive)	> 100 µM (inactive)	> 100 µM (inactive)	> 100 µM (inactive)	> 100 µM (inactive)	> 100 µM (inactive)	> 100 µM (inactive)	> 100 µM (inactive)		
